ChEMBL document CHEMBL1139128, “Structure-activity relationship analysis of a novel necroptosis inhibitor, Necrostatin-5” (Bioorg Med Chem Lett, 2007)
pEC50: −log10 of the molar value. The source made the active and inactive calls. How the calls were made is not given here.

Tested on: Jurkat
Assay: Inhibition of TNF-alpha-induced necroptosis in FADD-deficient Jurkat T cells
Assay type: functional, cell-based
Design: concentration or dose not given beside the values
Details: for pEC50: Jurkat

Compound	Activity (Homo sapiens)	Activity	pEC50 (Homo sapiens)
COc1ccc(-n2c(SCC(=O)Nc3ccccc3C(F)(F)F)nc3sc4c(c3c2=O)CCCC4)cc1	inactive		
CCCCSc1nc2sc3c(c2c(=O)n1-c1ccc(OC)cc1)CCC3	inactive		
N#CCSc1nc2sc3ccccc3c2c(=O)n1-c1ccc2c(c1)OCCO2		100%	6.82
N#CCSc1nc2sc3c(c2c(=O)n1-c1ccccc1)CCC3	inactive		
CSc1nc2sc3c(c2c(=O)n1-c1ccc2c(c1)OCO2)CCCC3	inactive		
CSc1nc2sc3c(c2c(=O)n1-c1ccc(C)c(C)c1)CCC3	inactive		
COc1ccc(-n2c(SCC#N)nc3sc4c(c3c2=O)CCCC4)c(OC)c1	inactive		
COc1ccc(-n2c(SC(C)=O)nc3sc4c(c3c2=O)CCCC4)cc1	inactive		
CSc1nc2sc3c(c2c(=O)n1-c1ccc(OC(F)(F)F)cc1)CCC3	inactive		
CCc1sc2nc(SCC#N)n(-c3ccc(OC)cc3)c(=O)c2c1C		86.8%	5.28
CSc1nc2sc(C)c(C)c2c(=O)n1-c1ccc(N(C)C)cc1	inactive		
CSc1nc2sc3c(c2c(=O)n1-c1ccc(C)c(C)c1)CCCC3		38%	4.78
COc1ccc(-n2c(SCC(C)O)nc3sc4c(c3c2=O)CCCC4)cc1 (centres undefined)	inactive		
COc1ccc(-n2c(SCC#N)nc3sccc3c2=O)cc1	inactive		
COc1ccc(-n2c(SC)nc3scc(C)c3c2=O)cc1	inactive		
N#CCSc1nc2sccc2c(=O)n1-c1ccccc1	inactive		
N#CCSc1nc2sc3c(c2c(=O)n1-c1ccc(F)cc1)CCCC3		85.1%	6.62
CCc1sc2nc(SC)n(-c3ccc(F)cc3)c(=O)c2c1C	inactive		
CCSc1nc2sc3c(c2c(=O)n1-c1ccccc1)CCCCC3	inactive		
COc1ccc(-n2c(SC)nc3sc4c(c3c2=O)CCCC4)c(OC)c1	inactive		
COc1ccc(-n2c(SCc3ccccc3)nc3sc4c(c3c2=O)CCCC4)cc1	inactive		
N#CCSc1nc2sc3c(c2c(=O)n1-c1cccc(Cl)c1)CCCC3		66.9%	5.29
CSc1nc2sc(C)c(C)c2c(=O)n1-c1ccc2c(c1)OCO2		67%	5.95
N#CCSc1nc2sc3c(c2c(=O)n1-c1ccccc1)CCCCC3	inactive		
N#CCSc1nc2sc3c(c2c(=O)n1-c1ccc(OCc2ccccc2)cc1)CCCC3	inactive		
COc1ccc(-n2c(SCC(C)=O)nc3sc4c(c3c2=O)CCCC4)cc1	inactive		

Compound	Activity (Homo sapiens)	Activity	pEC50 (Homo sapiens)
COc1cccc(-n2c(SCC#N)nc3sc4c(c3c2=O)CCCC4)c1		87.7%	5.84
COc1ccc(-n2c(SC)nc3sccc3c2=O)cc1	inactive		
C=CCSc1nc2sc3c(c2c(=O)n1-c1ccc(OC)cc1)CCCC3	inactive		
COc1ccc(-n2c(SCC#N)nc3sc4c(c3c2=O)CCCC4)cc1		100%	6.62
N#CCSc1nc2sc3c(c2c(=O)n1-c1ccc(Br)cc1)CCCC3	inactive		
C#CCSc1nc2sc(CCC)c(C)c2c(=O)n1-c1ccc(OC)cc1	inactive		
C#CCSc1nc2sc(CC)c(C)c2c(=O)n1-c1ccc(OC)cc1	inactive		
CSc1nc2sc3c(c2c(=O)n1-c1ccc(Br)cc1)CCCC3	inactive		
C#CCSc1nc2sc(C)c(C)c2c(=O)n1-c1ccc2c(c1)OCO2	inactive		
COc1ccc(-n2c(SCCO)nc3sc4c(c3c2=O)CCC4)cc1		100%	5.15
CCc1c(C)sc2nc(SCC#N)n(-c3ccc(OC)cc3)c(=O)c12		100%	5.97
N#CCSc1nc2sc3c(c2c(=O)n1-c1ccccc1)CCCC3	inactive		
CCc1sc2nc(SCC#N)n(-c3ccc(F)cc3)c(=O)c2c1C	inactive		
Cc1ccc(-n2c(SCC#N)nc3sc4c(c3c2=O)CCCC4)cc1		48.6%	5.74
CSc1nc2sc3c(c2c(=O)n1-c1ccc(C)c(C)c1)CC(C)CC3 (centres undefined)	inactive		
CCOc1ccc(-n2c(SCC#N)nc3sc4c(c3c2=O)CCC4)cc1	inactive		
Cc1sc2nc(SCC#N)n(-c3ccc4c(c3)OCCO4)c(=O)c2c1C		100%	6.60
Cc1sc2nc(SCC#N)n(-c3ccc(F)cc3)c(=O)c2c1C		87.6%	5.35
CCSc1nc2sc3c(c2c(=O)n1-c1ccc(OC)cc1)CCCC3	inactive		
COc1ccc(-n2c(SCC#N)nc3sc4ccccc4c3c2=O)cc1		83.3%	6.74
N#CCSc1nc2sc3c(c2c(=O)n1-c1ccc(OC(F)(F)F)cc1)CCC3		70%	5.43
Cc1ccc(-n2c(SCC#N)nc3sc4c(c3c2=O)CC(C)CC4)cc1C (centres undefined)		38%	4.78
CSc1nc2sc3ccccc3c2c(=O)n1-c1ccc(OC(F)(F)F)cc1	inactive		
COc1ccc(-n2c(SC)nc3sc4c(c3c2=O)CC(C)CC4)cc1OC (centres undefined)	inactive		
C#CCSc1nc2sc3c(c2c(=O)n1-c1ccc(OC)cc1)CCC3		63.4%	5.60
COc1ccc(-n2c(SCC#N)nc3sc(C)cc3c2=O)cc1	inactive		

Compound	Activity (Homo sapiens)	Activity	pEC50 (Homo sapiens)
COc1ccc(CSc2nc3sc4c(c3c(=O)n2-c2ccc(OC)cc2)CCCC4)cc1	inactive		
CCSc1nc2sc3c(c2c(=O)n1-c1ccc(OC)cc1)CCC3	inactive		
COc1ccc(-n2c(SC[N+](=O)[O-])nc3sc4c(c3c2=O)CCC4)cc1	inactive		
CCOc1ccc(-n2c(SC)nc3sc4ccccc4c3c2=O)cc1	inactive		
CCCCSc1nc2sc3c(c2c(=O)n1-c1ccc(OC)cc1)CCCC3	inactive		
CSc1nc2sc3c(c2c(=O)n1-c1ccc2c(c1)OCO2)CCC3	inactive		
CCCCCSc1nc2sc3c(c2c(=O)n1-c1ccc(OC)cc1)CCC3	inactive		
COc1ccc(-n2c([S+](C)[O-])nc3sc4c(c3c2=O)CCCC4)cc1 (centres undefined)	inactive		
CCCCCCCCCCCCCCc1sc2nc(SCC#N)n(-c3ccc(OC)cc3)c(=O)c2c1C	inactive		
COc1ccc(-n2c(SCC#N)nc3scc(C)c3c2=O)cc1	inactive		
CCSc1nc2sc(CC)c(C)c2c(=O)n1-c1ccc(OC)cc1	inactive		
C=CCSc1nc2sc3c(c2c(=O)n1-c1ccccc1)CCCC3	inactive		
N#CCSc1nc2sc3ccccc3c2c(=O)n1-c1ccc2c(c1)OCO2		100%	6.57
C#CCSc1nc2sc(CC)c(C)c2c(=O)n1-c1ccc2c(c1)OCO2	inactive		
O=c1c2c3c(sc2nc(SCc2ccccc2)n1-c1ccccc1)CCCC3	inactive		
N#CCSc1nc2sc3c(c2c(=O)n1-c1ccc2c(c1)OCCO2)CCC3		100%	6.60
N#CCSc1nc2sc3c(c2c(=O)n1-c1ccc(F)cc1)CCC3		88.7%	6.05
Cc1sc2nc(SCC#N)n(-c3ccc(N(C)C)cc3)c(=O)c2c1C	inactive		
CSc1nc2sc(C)c(C)c2c(=O)n1-c1ccc(OC(F)(F)F)cc1	inactive		
COc1ccc(-n2c(SCc3ccccc3)nc3sc4c(c3c2=O)CCC4)cc1	inactive		
COc1ccc(-n2c(SC)nc3sc4ccccc4c3c2=O)cc1		77%	6.62
COc1ccc(-n2c(SCCC#N)nc3sc4c(c3c2=O)CCCC4)cc1		70%	5.28
N#CCSc1nc2sc3c(c2c(=O)n1-c1ccc(F)c(F)c1)CCCC3	inactive		
N#CCSc1nc2sc3c(c2c(=O)n1-c1ccc2c(c1)OCCO2)CCCC3		100%	6.66
